Measurements from patent US20090184006A1, “METHOD FOR THE DETERMINATION OF THE ACTIVITY OF THE ORGANIC CATION TRANSPORTER” (SANOFI-AVENTIS, priority 2006, published 2009).

How the values were obtained:
rOCT2 (slc22a2) = biological target: T1, rOCT2 (slc22a2) (Rattus norvegicus, UniProt Q9R0W2); assay: cell free electrophysiological sensor chip assay, inhibition of choline-induced current, rOCT2 CHO cell membranes; format: biochemical; details: 10 mM choline as substrate, pH 7.4, read-out: IC50 of TBA of rOCT2
T1 construct: expressed in transfected cells; host or cells: CHO cells, stably transfected; membrane fragments immobilised on the sensor chip
T1 sequence (Q9R0W2 with tags, fused parts or gaps limits assumed): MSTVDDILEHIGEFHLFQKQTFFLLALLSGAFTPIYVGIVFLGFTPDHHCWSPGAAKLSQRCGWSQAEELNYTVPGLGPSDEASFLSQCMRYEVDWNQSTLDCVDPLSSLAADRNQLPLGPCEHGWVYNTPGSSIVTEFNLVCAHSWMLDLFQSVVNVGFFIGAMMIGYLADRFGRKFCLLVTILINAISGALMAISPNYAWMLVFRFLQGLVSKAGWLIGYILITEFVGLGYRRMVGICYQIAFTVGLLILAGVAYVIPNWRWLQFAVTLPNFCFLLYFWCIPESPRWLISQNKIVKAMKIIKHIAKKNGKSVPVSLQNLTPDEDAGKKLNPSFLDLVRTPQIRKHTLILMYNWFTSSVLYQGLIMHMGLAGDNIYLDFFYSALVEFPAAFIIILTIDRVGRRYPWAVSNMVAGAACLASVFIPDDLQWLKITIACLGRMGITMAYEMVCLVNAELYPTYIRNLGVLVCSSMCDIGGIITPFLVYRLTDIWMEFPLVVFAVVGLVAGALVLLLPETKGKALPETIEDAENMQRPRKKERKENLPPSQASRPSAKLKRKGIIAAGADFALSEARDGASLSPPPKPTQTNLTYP
Description: IC50 was determined using 10 mM choline as a substrate.
(§1) After harvesting the cells from a virally transfected Sf9 or HighFive suspension cell line or an stably transfected adherent CHO cell line via centrifugation, aliquots of approx. 2 g wet weight cells were quick-frozen in liquid nitrogen and stored at −80° C. for further preparation.
(§2) The membrane fragments were prepared by cell rapture. Cells were homogenized by the nitrogen cell disruption method utilizing a Parr Cell Disruption Bomb (Parr Instrument Company, Illinois, USA) or the Dounce homogenisation method utilizing a Dounce Homogenisator (7 ml from Novodirect GmbH, Kehl/Rhein, Germany) and the suspension centrifuged 10 min at 4° C. and 680 g and 10 min at 4° C. and 6100 g. The supernatants were collected and again centrifuged for 1 h at 4° C. and 100,000 g in SW41 swing-out rotor.
(§3) Biosensors were prepared according to the following protocol. • 1. Addition of 30 μl mercaptane solution (2% mercaptane in isopropanol) to biosensor • 2. Incubation time: 15 min • 3. Rinsing with 3×70 μl isopropanol • 4. Vacuum dry biosensor • 5. Drying time: 30 min • 6. […]
(§4) For the determination of its activity, the OCT protein was treated consecutively with a washing, non-activating and activating solution and the electrical current was measured when changing from charging to activating treatment. […]

hOCT2 (SLC22A2) = biological target: T2, hOCT2 (SLC22A2) (Homo sapiens, UniProt O15244, S270A); assay: cell free electrophysiological sensor chip assay, inhibition of choline-induced current, hOCT2 CHO cell membranes; format: biochemical; details: 30 mM choline as substrate (FIG. 4B legend), pH 7.4, read-out: IC50 of TBA of hOCT2
T2 construct: expressed in transfected cells; host or cells: CHO cells, stably transfected; membrane fragments immobilised on the sensor chip
T2 sequence (O15244 1-555 S270A): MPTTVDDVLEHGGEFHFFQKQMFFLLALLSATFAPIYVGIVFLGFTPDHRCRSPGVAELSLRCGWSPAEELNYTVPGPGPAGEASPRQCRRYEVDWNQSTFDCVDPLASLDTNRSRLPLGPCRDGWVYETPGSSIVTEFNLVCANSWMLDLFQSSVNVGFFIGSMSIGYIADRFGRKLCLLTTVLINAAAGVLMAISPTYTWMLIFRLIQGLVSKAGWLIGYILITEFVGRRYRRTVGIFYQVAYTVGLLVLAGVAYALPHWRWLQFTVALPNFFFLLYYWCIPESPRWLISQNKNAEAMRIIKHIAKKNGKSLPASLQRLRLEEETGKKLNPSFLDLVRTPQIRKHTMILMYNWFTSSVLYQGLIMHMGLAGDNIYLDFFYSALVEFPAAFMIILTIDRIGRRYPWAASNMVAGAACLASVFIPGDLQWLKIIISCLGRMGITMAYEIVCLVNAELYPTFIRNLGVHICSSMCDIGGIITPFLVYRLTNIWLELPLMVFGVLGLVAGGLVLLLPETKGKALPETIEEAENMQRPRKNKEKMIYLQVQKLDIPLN
Description: IC50 was determined using 30 mM choline as a substrate.
as §1, §2, §3, §4

Q: How did the IC50 (rOCT2 (slc22a2)) turn out when `CCCC[N+](CCCC)(CCCC)CCCC` [TBA] was run?
A: 3.5 µM

Q: And the IC50 (hOCT2 (SLC22A2))?
A: 2.9 µM
